Assay results reported in patent US11174177B2, “Systems and methods for controlling aquatic pests with sulfurous acid” (priority 2017, dated 2021).

Tests used:
clams = details: sulfuric acid and low pH, previously found; cited from earlier work
bryozoa = assay: Open-water pond treatment, mortality of bryozoa; assay type: in vivo
Method: (§1) Applicant have performed studies and determined that the present water treatment methods with sulfurous acid provide about 100% kill of bryozoa in 48 hours, 100% kill of zebra mussels in 5 days, and 100% kill of Asiatic clams in less than one month. In these studies, the protocols introduced sulfurous acid into open water to achieve water pH levels between 6.0 and 6.5 in the treatment water within a control distance from the location of introduction. Accordingly, these pH ranges are sufficient to control these aquatic species. This allows these relatively higher pH ranges to control the aquatic species without compromising the body of water. The cyanobacteria can have a 100% kill from the sulfurous acid with a pH of the treated water between 6-7, or more preferably between 6.8-7.
(§2) In view of the disclosure provided herein, it is now possible to achieve about 100% kill rates on these aquatic pest species in any size body of water at ambient temperature and pressure. The water treatment is performed through the addition of sufficient sulfurous acid (as well as any sulfites and bisulfites in the sulfurous acid) so as to reduce pH between about 6.0-about 6.5 over hours to days to weeks. […] The mortality of each aquatic pest was measured progressively over time until all the aquatic pests in the pond were determined to be dead or at a level so low as to be unmeasurable.

zebra mussels = assay: Open-water pond treatment, mortality of zebra mussels; assay type: in vivo
Method: as §1, §2

Asiatic clams = assay: Open-water pond treatment, mortality of Asiatic clams; assay type: in vivo
Method: as §1, §2

cyanobacteria = assay: Treatment of Daybreak reservoirs infested with cyanobacteria; assay type: in vivo
Description: (§3) As a control, Jordan Canal water, which was infected with cyanobacteria from Utah Lake, is directed to Daybreak and other areas. While treatment controlled cyanobacteria in Daybreak reservoirs, other areas that receive water from the Jordan Canal were still testing positive for cyanobacteria. As such, the treatment of sulfurous acid controlled the cyanobacteria in view of water ways further away (e.g., Blackridge Reservoir, Jordan River Narrows, and Wheeler Farm East Canal) still containing cyanobacteria. […] Since cyanobacteria are harmful to fish, the sulfurous acid actually improves the health of fish in the treated water.

anatoxin-a = assay: Cyanotoxin in treated Daybreak reservoirs; set-up: species or system cyanobacteria; details: Daybreak reservoirs (surge pond), pH maintained between 6.8-7
Description: as §3

fish or other animals = assay type: in vivo; details: Daybreak reservoirs, pH maintained between 6.8-7
Description: as §3

algae = assay: Removal of algae from treated water; assay type: in vivo; details: pH 6.5
Description: In one example, pH 6.5 removed algae in 15 days.

aquatic pests = assay: Water treatment, control of aquatic pests in general; assay type: in vivo
Description: Thus, sulfurous acid can be used to treat water to control existing aquatic pest as well as condition the water to inhibit spreading of any aquatic pests introduced therein. This can inhibit spreading from a first body of water to a second body of water, such as from a pond to a stream or from a stream into a pond. While providing the sulfurous acid prohibits or prevents aquatic pest infestations or can be used as a prophylactic against aquatic pest infestations, application to the water can be done for the desire to control any aquatic pest in the water or soil in contact with the water (e.g., river bed, pond bed, shore, or other soil in direct contact with the water), or that may come into contact therewith. Also, the sulfurous acid can treat the surfaces of any water system or any surface of any object in the water to inhibit aquatic pest from attaching thereto, remove the aquatic pests from the surface (e.g., descale) or otherwise inhibit the aquatic pest from contaminating the water system. Thus, it may be desirable to apply the sulfurous acid to a water or soil contacting the water or structure confining the water as desired.
Thus, exhaust products from burning sulfur and reaction products of the exhaust products (e.g., reaction products from reacting sulfur dioxide with water or reacting other sulfur-containing substance in the exhaust with water) and water can be used to control the aquatic pets. In one aspect, sulfuric acid is specifically not used in the methods described herein.
Thus, introducing the exhaust products from burning sulfur that has sulfur dioxide (e.g., exhaust directly from a sulfur burn chamber) and reaction products of the exhaust products and water may reduce the calcium in the water in order to control the pests. This may include reducing the overall free calcium level, such as reducing carbonate and bicarbonate levels. In one aspect, the ability of sulfurous acid to degrade carbonates and bicarbonates may contribute to the ability of the present technology controlling pests. […] As referred to herein, the exhaust products include sulfur dioxide and possibly other sulfur-containing substances that are obtained directly from a sulfur burner that burns elemental sulfur.
Treatment can provide clarified water from murky water having one or more of these aquatic pests.

[1] = inoculated aquatic pond, pH about 6.0-about 6.5, no time stated

Compound	kill of clams (clams)	kill of bryozoa (bryozoa; in 48 hours, open water, pH between 6.0 and 6.5)	kill of bryozoan (bryozoa; [1])	kill of zebra mussels (zebra mussels; in 5 days, open water, pH between 6.0 and 6.5)	kill of zebra mussels (zebra mussels; [1])	kill of Asiatic clams (Asiatic clams; in less than one month, open water, pH between 6.0 and 6.5)	kill of Asiatic clams (Asiatic clams; [1])	time until free of cyanobacteria (cyanobacteria; Daybreak reservoirs (surge pond), pH maintained between 6.8-7)	detection of cyanobacteria after treatment (cyanobacteria; Daybreak reservoirs, untreated Jordan Canal areas still positive)	cyanobacteria in waterways downstream from the Daybreak reservoirs (cyanobacteria; downstream of treated reservoirs)	kill of cyanobacteria (cyanobacteria; pH of the treated water between 6-7, more preferably 6.8-7)	time until free of anatoxin-a (anatoxin-a)	kill of non-target fish or other animals (fish or other animals)	time to removal of algae (algae)	effect on algae, bacteria, zebra mussel, Asian clam, apple snail, American crab, crayfish, Bryozoans (aquatic pests; in vivo)	kill rates in the aquatic pests (aquatic pests; open and contained water)	effectiveness in controlling aquatic pests versus sulfuric acid (aquatic pests; pH reduced to 7.1 with sulfurous acid versus pH 3.0 with sulfuric acid)	aquatic pest count (aquatic pests; preliminary testing, applied to water having aquatic pest)
O=S(=O)(O)O [sulfuric acid]	kill the clams, but only in some cases																	
sulfurous acid		about 100%	about 100%	100%	about 100%	100%	about 100%	≤ 2 weeks	non-detect	free of cyanobacteria	100%	≤ 2 weeks	no fish or other animals were determined to be killed	15 days	reduce	100%	more effective	reduces the aquatic pest count
